Test system: head-rod domain of NF subunit (NFL, NFM, NFH)
Experiment: Yeast two-hybrid, PKN N-terminal region with NF head-rod domains
Assay type: binding
Conditions: lacZ expression
Experimental: Specificity of the interaction between PKN and various NFs was investigated by measuring the ability of the two-hybrid constructs, pBTM116(Vojtek, A. B. et al., Cell, 74, 205-214 (1993)) (instead of pGBT9)-PKN and pVP16 (Vojtek, A. B. et al., Cell, 74, 205-214 (1993)) (instead of pGAD10)-NF or in reverse, to support lacZ expression in L40 cells.
Yeast expression vectors were prepared as follows. Yeast expression vector pVP/NFL#21 for the VP16 transcription activation domain-head-rod domain of human NFL was made by subcloning a EcoRI insert (amino acid sequence 1-349) of a library plasmid #21 originally isolated from two-hybrid screening into pVP16 vector (Vojtek, A. B. et al., Cell, 74, 205-214 (1993)). Yeast expression vectors for the VP16 transcription activation domain—tail domain of NFL and NFH or the VP16 transcription activation domain—head-rod domain or tail domain of NFM were constructed by subcloning BamHI/NotI insert of pGST/NFLt, pGST/NFHt, pGST/NFMhr, and pGST/NFMt (described in Example 8) into pVP16 in frame, respectively (designated respectively as pVP/NFLt, pVP/NFHt, pVP/NFMhr, and pVP/NFMt). […]

In the case of “N-terminal region of PKN: N-terminal regulatory region of human PKN: 1-540 (PKNN1) in two-hybrid and GST fusions, 1-474 when in vitro translated”, the “binding to head-rod domain of each NF subunit in two-hybrid system” value is reported as “bound”.

Source: US6660837B1, “Modified protein derived from protein kinase N” (Kirin Beer Kabushiki Kaisha, priority 1995, dated 2003)
